Assay [1] deals with MNK2a (pre-activated GST-MNK2a) (Homo sapiens (Human), UniProt Q9HBH9). Put plainly: MNK2a in vitro kinase assay (assay 1), ADP-Glo. In kind it is biochemical. As to conditions: read-out: Mnk2 IC50. The protocol:
A. MNK2a In Vitro Kinase Assay (Assay 1)
The inhibition of kinase activity of MNK2a was assessed using pre-activated GST-MNK2a. The white, 384-well OptiPlate F plates were purchased from PerkinElmer. The ADP-Glo Kinase Assay (including ultra pure ATP) was purchased from Promega (V9103). Activated MNK2a was obtained as described in WO2011/104340. […] ID No. 5 of WO 2011/104340 by the C-terminal —CONH2 group, was purchased from Thermo Fisher Scientific. All other materials were of highest grade commercially available. Compounds are tested in either serial dilutions or single dose concentrations. The compound stock solutions are 10 mM in 100% DMSO The serial compound dilutions are prepared in 100% DMSO followed by 1:27.3 intermediate dilution in assay buffer. The final DMSO concentration in assay will be <3%.
In the 384-well plates 3 μl of test compound from the intermediate dilution is mixed with 4 μl of the activated MNK2 enzyme (final concentration of 10 nM) and 4 μl of the peptide (final concentration of 25 μM)/ultra pure ATP (final concentration of 20 μM), all dissolved in assay buffer. This step is followed by an incubation time of 90 min, then 10 μl of ADP Glo reagent are added, followed by 40 min of incubation. Then 20 μl of kinase detection reagent are admixed. The plates are sealed and after an incubation period of 30 min, the luminescence signal is measured in an Envision reader to determine the amount of produced ADP. All incubation steps are performed at room temperature.
The assay buffer consists of 20 mM HEPES, 2 mM DTT, 0.01% BSA, 20 mM MgCl2 and 0.1% Pluronic F-127.
The luminescent signal generated is proportional to the ADP concentration produced and is correlated with activated MNK2 activity. The analysis of the data is performed by the calculation of the percentage of ATP consumption of activated MNK2 in the presence of the test compound compared to the consumption of ATP in the presence of activated MNK2 without compound. (RLU(sample)−RLU(low control))*100/(RLU(high value)−RLU(low control))
[RLU=Relative Luminescence Units]
Values of more than 100% CTL are normally related to compound/sample specific physico-chemical properties (e.g. solubility, light absorbance, fluorescence).
IC50 values based on dose response curves are calculated with the AssayExplorer software.

Assay [2] concerns the target MNK1a (pre-activated GST-MNK1a) (Homo sapiens (Human), UniProt Q9BUB5). Put plainly: MNK1 in vitro kinase assay (assay 2), Z'-LYTE. The assay is classed as biochemical. As to conditions: for inhibition at 1 µM: compound concentration of 1 μM, read-out: Mnk1 % Inh. The text has this: B. MNK1 In Vitro Kinase Assay (Assay 2)
MNK1 Data can be obtained from the MNK1 Z′-LYTE® assay. The MNK1 Z′-LYTE® screening protocol and assay conditions are also described on www.invitrogen.com.
The assay is described as follows:
The Z′-LYTE® biochemical assay employs a fluorescence-based, coupled-enzyme format and is based on the differential sensitivity of phosphorylated and non-phosphorylated peptides to proteolytic cleavage. The peptide substrate is labeled with two fluorophores—one at each end—that make up a FRET pair.
In the primary reaction, the kinase transfers the gamma-phosphate of ATP to a single tyrosine, serine or threonine residue in a synthetic FRET-peptide. In the secondary reaction, a site-specific protease recognizes and cleaves non-phosphorylated FRET-peptides. Phosphorylation of FRET-peptides suppresses cleavage by the Development Reagent. Cleavage disrupts FRET between the donor (i.e., coumarin) and acceptor (i.e., fluorescein) fluorophores on the FRET-peptide, whereas uncleaved, phosphorylated FRET-peptides maintain FRET. A ratiometric method, which calculates the ratio (the Emission Ratio) of donor emission to acceptor emission after excitation of the donor fluorophore at 400 nm, is used to quantitate reaction progress, as shown in the equation below. Emission Ratio=Coumarin Emission(445 nm)/Fluorescein Emission(520 nm)
The inhibition of kinase activity of MNK1a was assessed using pre-activated GST-MNK1a. The 2×MKNK1 (MNK1) mixture is prepared in 50 mM HEPES pH 7.5, 0.01% BRIJ-35, 10 mM MgCl2, 4 mM MnCl2, 1 mM EGTA, 2 mM DTT. The final 10 μL Kinase Reaction consists of 13.5-54 ng MKNK1 (MNK1) and 2 μM Ser/Thr 07 in 50 mM HEPES pH 7.5, 0.01% BRIJ-35, 10 mM MgCl2, 2 mM MnCl2, 1 mM EGTA, 1 mM DTT. After the 1 hour Kinase Reaction incubation, 5 μL of a 1:32768 dilution of Development Reagent A is added.
The Test Compounds are screened in 1% DMSO (final) in the well.
All Peptide/Kinase Mixtures are diluted to a 2×working concentration in the MNK1 Kinase Buffer.
All ATP Solutions are diluted to a 4×working concentration in Kinase Buffer (50 mM HEPES pH 7.5, 0.01% BRIJ-35, 10 mM MgCl2, 1 mM EGTA).
Development Reagent Solution:
The Development Reagent is diluted in Development Buffer
Bar-coded Corning, low volume NBS, 384-well plate (Corning Cat. #3676)
1. 2.5 μL—4×Test Compound
2. 5 μL—2×Peptide/Kinase Mixture
5. 60-minute Kinase Reaction incubation at room temperature
6. 5 μL—Development Reagent Solution
8. 60-minute Development Reaction incubation at room temperature
9. Read on fluorescence plate reader and analyze the data
The following equations are used for each set of data points:
Correction for Background Fluorescence: FISample−FITCFI Ctl Emission Ratio (using values corrected for background fluorescence):Coumarin Emission (445 nm)/Fluorescein Emission (520 nm)
% Phosphorylation (% Phos): 1−((Emission Ratio×F100%)−C100%)/((C0%−C100%)+[Emission Ratio×(F100%−F0%)])*100
% Inhibition: 1−(% PhosSample/% Phos0% Inhibition Ctl)*100 FI=Fluorescence Intensity C100%=Average Coumarin emission signal of the 100% Phos. Control C0%=Average Coumarin emission signal of the 0% Phos. Control F100%=Average Fluorescein emission signal of the 100% Phos. Control F0%=Average Fluorescein emission signal of the 0% Phos. Control
SelectScreen® Kinase Profiling Service uses XLfit from IDBS. The dose response curve is curve fit to model number 205 (sigmoidal dose-response model).

As a reminder, the IC50 is the midpoint of a concentration-inhibition curve.

MNK2a (pre-activated GST-MNK2a), sequence (Q9HBH9 whole entry): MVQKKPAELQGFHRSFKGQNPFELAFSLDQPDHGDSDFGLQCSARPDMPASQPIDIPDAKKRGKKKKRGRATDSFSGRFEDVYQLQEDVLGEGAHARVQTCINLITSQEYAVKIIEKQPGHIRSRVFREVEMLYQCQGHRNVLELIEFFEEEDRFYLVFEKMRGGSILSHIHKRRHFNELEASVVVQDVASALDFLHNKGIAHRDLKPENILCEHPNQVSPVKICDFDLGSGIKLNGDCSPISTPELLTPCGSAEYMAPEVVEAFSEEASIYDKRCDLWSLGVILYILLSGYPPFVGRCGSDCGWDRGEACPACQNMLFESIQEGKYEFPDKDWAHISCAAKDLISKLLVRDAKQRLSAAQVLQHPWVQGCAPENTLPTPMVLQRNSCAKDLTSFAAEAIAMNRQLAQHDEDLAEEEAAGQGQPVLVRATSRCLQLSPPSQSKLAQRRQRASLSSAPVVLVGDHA
MNK1a (pre-activated GST-MNK1a), sequence (Q9BUB5 other isoform, or with tags, fused parts or gaps): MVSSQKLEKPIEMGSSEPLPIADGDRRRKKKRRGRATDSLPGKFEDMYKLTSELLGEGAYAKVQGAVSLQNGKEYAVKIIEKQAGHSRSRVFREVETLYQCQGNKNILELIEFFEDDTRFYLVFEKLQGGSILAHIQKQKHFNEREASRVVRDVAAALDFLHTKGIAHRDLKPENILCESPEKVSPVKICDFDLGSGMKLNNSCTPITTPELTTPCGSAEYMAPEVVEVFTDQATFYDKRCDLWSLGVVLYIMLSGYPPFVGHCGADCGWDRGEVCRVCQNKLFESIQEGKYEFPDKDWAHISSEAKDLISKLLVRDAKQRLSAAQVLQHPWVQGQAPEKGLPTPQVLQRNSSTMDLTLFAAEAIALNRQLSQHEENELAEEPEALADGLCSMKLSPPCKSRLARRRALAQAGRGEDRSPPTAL

For `COc1c(N=S(C)(C)=O)cc2ncnc(Nc3ccc(F)cc3O[C@H](C)C(=O)NCC(F)(F)F)c2c1C` [Example 2.24], the IC50 in assay [1] turned out to be 4.4 nM. Moreover, in assay [2], the inhibition at 1 µM was determined as 100%.

Take `COc1c(N=S(C)(C)=O)cc2ncnc(Nc3ccc(F)cc3O[C@@H]3CO[C@@H]4CCO[C@@H]43)c2c1C` [Example 2.25]: the concentration for half-maximal inhibition (IC50) in assay [1] turned out to be 0.8 nM; in assay [2], 18 nM.

For the molecule `COc1c(N=S2(=O)CCC2)cc2ncnc(Nc3ccc(F)cc3O[C@@H]3CO[C@H]4[C@@H]3OC[C@@H]4F)c2c1C` [Example 2.26], the concentration for half-maximal inhibition (IC50) in assay [1] came to 1 nM; in assay [2], 64 nM.

In the case of `COc1c(N=S2(=O)CCC2)cc2ncnc(Nc3cc4cn[nH]c4cc3OC(C)C)c2c1C` [Example 2.27], the IC50 amounted to 3.9 nM in assay [1] and 87 nM in assay [2].

With `COc1c(N=S(C)(C)=O)cc2ncnc(Nc3ccc(Cl)cc3O[C@H](C)C(=O)NCC(F)(F)F)c2c1C` [Example 2.29], in assay [1], the IC50 came to 2.6 nM. In addition, in assay [2], the inhibition at 1 µM stood at 96%.

For `COc1c(N=S2(=O)CCNCC2)cc2ncnc(Nc3ccc(F)cc3O[C@@H]3CO[C@@H]4CCO[C@@H]43)c2c1C` [Example 2.30], the IC50 in assay [1] worked out at 1.3 nM. The inhibition at 1 µM in assay [2] was found to be 105%.

Regarding `COc1c(N=S(C)(=O)C(C)C)cc2ncnc(Nc3ccc(F)cc3O[C@@H]3CO[C@@H]4CCO[C@@H]43)c2c1C` (some centres unmarked) [Example 2.31], the IC50 in assay [1] is 2.1 nM. In assay [2], the inhibition at 1 µM was determined as 96%.

Consider `Cc1c(OCCN2CCN(C)C(=O)C2)c(N=S(C)(C)=O)cc2ncnc(Nc3ccc(F)cc3O[C@H](C)C(F)(F)F)c12` [Example 2.32], for which the IC50 is 4.1 nM in assay [1] and 65 nM in assay [2].

`COc1c(N=S2(=O)CCCC2)cc2ncnc(Nc3ccc(F)cc3O[C@@H]3CO[C@@H]4CCO[C@@H]43)c2c1Cl` [Example 2.33]: in assay [1], the IC50 came out at 1.6 nM. Besides, in assay [2], the inhibition at 1 µM amounted to 106%.

Consider `COc1c(N=S(C)(C)=O)cc2ncnc(Nc3ccc(F)cc3OC3CCOCC3)c2c1Cl` [Example 2.34], for which, in assay [1], the IC50 is 2 nM. Also, in assay [2], the inhibition at 1 µM amounted to 94%.

`COc1c(N=S2(=O)CCC2)cc2ncnc(Nc3ccc(F)cc3O[C@H](C)C(F)(F)F)c2c1C` [Example 2.35]: the IC50 turned out to be 1.5 nM in assay [1] and 74 nM in assay [2].

As for `COc1c(N=S2(=O)CCCC2)cc2ncnc(Nc3ccc(F)cc3O[C@@H]3CO[C@H]4[C@@H]3OC[C@H]4OC)c2c1C` [Example 2.36], the IC50 in assay [1] was determined as 1.8 nM; in assay [2] it was 15 nM.

Turning to `COc1c(N=S(C)(C)=O)cc2ncnc(Nc3ccc(F)cc3O[C@H](C)C(=O)N[C@@H](C)C(F)(F)F)c2c1C` [Example 2.37], the IC50 in assay [1] stood at 4.1 nM. The inhibition at 1 µM in assay [2] is 88%.

For `COc1c(N=S(C)(C)=O)cc2ncnc(Nc3ccc(F)cc3O[C@H]3COC[C@@H]3O)c2c1C` [Example 2.38], the IC50 in assay [1] came out at 2 nM; in assay [2] it was 55 nM.

Consider `COc1c(N=S2(=O)CCC2)cc2ncnc(Nc3ccc(Cl)cc3O[C@H](C)C(=O)NCC(F)(F)F)c2c1C` [Example 2.39], for which the 50% inhibitory concentration (IC50) in assay [1] was 2.4 nM; in assay [2], 66 nM.

On to `COc1c(N=S(C)(C)=O)cc2ncnc(Nc3ccc(F)cc3O[C@@H]3CO[C@@H]4CCO[C@@H]43)c2c1Cl` [Example 2.40], for which the concentration for half-maximal inhibition (IC50) in assay [1] was determined as 1.3 nM; in assay [2] it was 16 nM.

As for `COc1c(N=S2(=O)CCC2)cc2ncnc(Nc3ccc(F)cc3O[C@@H]3CO[C@H]4[C@@H]3OC[C@H]4OC)c2c1C` [Example 2.41], the IC50 in assay [1] was found to be 1.6 nM. The inhibition at 1 µM in assay [2] was 106%.

`COc1c(N=S2(=O)CCC2)cc2ncnc(Nc3ccc(F)cc3O[C@@H]3CO[C@@H]4CCO[C@@H]43)c2c1C` [Example 2.42]: the IC50 in assay [1] came to 1.2 nM; in assay [2] it was 52 nM.

Regarding `COc1c(N=S(C)(=O)C2CC2)cc2ncnc(Nc3ccc(F)cc3O[C@@H]3CO[C@@H]4CCO[C@@H]43)c2c1C` (some centres unmarked) [Example 2.43], the IC50 in assay [1] was found to be 2.3 nM. For the same molecule, the inhibition at 1 µM in assay [2] was 97%.

As to `COc1c(N=S2(=O)CCCC2)cc2ncnc(Nc3ccc(F)cc3O[C@H]3CC[C@H](O)CC3)c2c1C` [Example 2.44], the half-inhibitory concentration (IC50) in assay [1] was found to be 1.4 nM; in assay [2], 41 nM.

Regarding `COc1c(N=S(C)(C)=O)cc2ncnc(Nc3ccc(F)cc3O[C@@H]3CO[C@H]4[C@@H]3OC[C@H]4OC)c2c1C` [Example 2.45], the results for the half-maximal inhibitory concentration (IC50) in assay [1] and in assay [2] were 1.7 nM and 17 nM, respectively.

Consider `COc1c(N=S2(=O)CCCC2)cc2ncnc(Nc3ccc(F)cc3O[C@H]3COC[C@@H]3O)c2c1C` [Example 2.46], for which the 50% inhibitory concentration (IC50) turned out to be 2 nM in assay [1] and 37 nM in assay [2].

With `COc1c(N=S(C)(C)=O)cc2ncnc(Nc3ccc(F)cc3O[C@H](C)C(=O)NCC(F)(F)F)c2c1Cl` [Example 2.47], the values for the IC50 in assay [1] and in assay [2] were 1.4 nM and 28 nM, respectively.

For `COc1c(N=S2(=O)CCCC2)cc2ncnc(Nc3ccc(F)cc3O[C@H]3CCOC3)c2c1C` [Example 2.48], the IC50 was 1.3 nM in assay [1] and 22 nM in assay [2].

As for `COc1c(N=S(C)(C)=O)cc2ncnc(Nc3cccnc3O[C@@H]3CO[C@@H]4CCO[C@@H]43)c2c1C` [Example 2.49], the IC50 in assay [1] is 2.3 nM. The inhibition at 1 µM in assay [2] worked out at 95%.

Turning to `COc1c(N=S(C)(C)=O)cc2ncnc(Nc3ccc(F)cc3O[C@H]3CCOC3)c2c1C` [Example 2.50], the IC50 in assay [1] was 2 nM; in assay [2] it was 44 nM.

On to `Cc1c(O)c(N=S(C)(C)=O)cc2ncnc(Nc3ccc(F)cc3O[C@H](C)C(F)(F)F)c12` [Example 2.51], for which the IC50 in assay [1] was determined as 6.9 nM. In addition, in assay [2], the inhibition at 1 µM amounted to 77%.

With `COc1c(N=S2(=O)CCCC2)cc2ncnc(Nc3ccc(F)cc3O[C@H](C)C(=O)NCC(F)(F)F)c2c1C` [Example 2.52], in assay [1], the concentration for half-maximal inhibition (IC50) was determined as 2.3 nM. Moreover, in assay [2], the inhibition at 1 µM came out at 100%.

For the origin of these results see patent US10167296B2, “Sulfoximine substituted quinazolines for pharmaceutical compositions” (EVOTEC INTERNATIONAL GMBH, priority 2014, dated 2019).
